Measurements as given in US20100303727A1, “OPTICAL IMAGING AGENTS” (priority 2007, published 2010).
Like-named read-outs stand apart in the source and are kept apart here. Bridge positions count the residues as written; N and C are the ends. Peptide text beside a SMILES is read from it. * marks the point of attachment. X3 = CC[N+]1=C(/C=C/C=C/C=C2/N(CCCCCC(=O)*)c3ccc(S(=O)(=O)O)cc3C2(C)C)C(C)(C)c2cc(S(=O)(=O)[O-])ccc21; X1 = C[N+]1=C(/C=C/C=C/C=C2/N(CCCCCC(=O)*)c3ccccc3C2(C)C)C(C)(C)c2cc(S(=O)(=O)[O-])ccc21; X2 = NC(=O)COCC(=O)NCCOCCOCCOCCN*

What was measured:
[1] = type: in vitro ADME, mouse
Description: Mouse plasma (non-sterile) was purchased from Rockland, Pa., USA. This plasma is stabilized with heparin, sodium. The substance was dissolved in PBS and plasma, respectively, at concentrations 0.1/0.2 mg/mL. Both blank samples (solvent without peptide) and peptide dissolved in plasma/PBS were incubated at 37° C. for about 4 hours. After incubation the proteins were removed by ultrafiltration using non-sterile Ultrafree®-MC centrifuge tubes with filter insert from Millipore Co. (Amicon). The cut-off of the filters was 30,000 NMWL Prior to centrifugation the plasma samples were diluted 1:1 with water. The samples were analysed by HPLC using visible detection.
The substance was dissolved in PBS, concentration 0.1 mg/mL. The fluorescence intensity of the ultracentrifuged samples was measured using Fluoroskan Ascent® FL equipped with plate reader (Thermo Labsystems Oy, Finland). Excitation wavelength was at 646 nm and emission wavelength at 678 nm and measurements were performed at two different concentrations of the substance, 6.5 μg/mL and 23 μg/mL plasma.
The Ultimate 3000 micro liquid chromatograph equipped with UV-Vis detector was applied in this study. The solution has an intense bluish colour and absorbs well at 650 nm.
The chromatography was performed on an X-Terra RP18 column 2.1×150 mm, 3.5 μm particles from Waters using a gradient elution of acetonitrile (ACN) and phosphate buffer (20 mM, pH 7.1); 650 nm detection; flow rate 0.1 mL/min; injection volume: 5 μL. Gradient: initiated at 22% ACN in buffer, increasing linearly to 50% ACN over 12 min; rapid linear increase of gradient to 90% ACN for 2 min followed; then equilibration to the starting mixture. Total analysis time was 20 min, with a retention time for the main peak of ˜9 min. Degradation/impurities were reported as changes in purity of the main peak.

collagen = type: binding; conditions: 1 h 37° C., Ex646/Em678 nm
Description: Commercially available collagen-covered 96-well plates were used (BD Biocoat, Art. code BDAA 356649, Becton, Dickinson Biosciences, Two Oak Park, Bedford, Mass. 01730). Triplicate wells were made of each test Compound at 30 nM, 100 nM or 300 nM (1000 nM included in some cases), and the plate was incubated in the plate reader for one hour at 37° C. with shaking every other minute*. The volume in each well was 200 μl. At the end of the incubation, 150 μl supernatant was transferred to an untreated 96-well plate, and the fluorescence was read with excitation at 646 nm and emission at 678 nm wavelengths.
For calculation of the degree of binding, the fluorescence from the supernatants was compared to the fluorescence from 150 μl aliquots with the same initial concentrations. In all cases, median values from 3 wells were used.

HT-29 tumour = assay: In vivo optical imaging of HT-29 tumour-bearing mice; conditions: mean tumour region intensity divided by mean muscle region intensity, iv injection, HT-29 tumours s.c.
Description: Female BALB c/A nude (Bom) mice were used in the study. The use of the animals was approved by the local ethics committee. As the animals were immunocompromised, they were housed in individually ventilated cages (IVC, Scanbur BK) supplied with HEPA filtered air. The animals had ad libitum access to “Rat and Mouse nr. 3 Breeding” diet (Scanbur BK) and tap water acidified by addition of HCl to a molar concentration of 1 mM (pH 3.0). In order to protect the animals during handling and all procedures before the imaging procedure, they were handled under conditions of laminar HEPA filtered air.
The animals were allowed an acclimatisation period of at least 5 days before being injected s.c. with HT-29 tumour cell suspensions at two sites (shoulder and left, lower flank) with a nominal dose of 2.5-3×10^6 cells per injection in a volume of 100 μl. The s.c. injections were performed under light gas anaesthesia. […]
Image analysis was performed with custom written MATLAB software. […] The mean signal of the pixel values inside each region was calculated. The mean signal and pixel standard deviation was calculated.
Based on the in-vitro data from example 7-10, in-vivo results from compounds 1, 2, 4 and 6 are presented. Tumour enhancement is quantified by a target to background ratio (TBR) defined as the ratio of the mean tumour region intensity divided by the mean muscle region intensity.

[2] = human, plasma
αVβ3 receptor = target: T1, αVβ3 receptor (Homo sapiens, UniProt P05106+P06756); assay: Competition assay using 125I-echistatin on EA-Hy926 membranes; type: binding; conditions: for Ki: competition with 125I-Echistatin, EA-Hy926 membranes
T1 construct: endogenous in cells; host or cells: EA-Hy926 human endothelial cell line (membrane preparation)
Description: A classical competition assay using ^125I-echistatin was performed in order to check the affinity (Ki) of the RGD-Cy^D conjugates (Compounds 1 to 8) towards membranes expressing. the αVβ3 receptor. Ki was determined in receptor competition studies with membranes prepared from human endothelial cells. Membranes from the human endothelial adenocarcinoma cell line EA-Hy926 that express several integrins including αVβ3 were prepared and used as a receptor source. Competitive binding of ^125I-Echistatin, a known […] for several integrins including αVβ3, was carried out with varying concentrations of cold compounds.

Compound	Collagen binding (% bound) (collagen; initial conc. 30 nM)	Collagen binding (% bound) (collagen; initial conc. 100 nM)	Collagen binding (% bound) (collagen; initial conc. 300 nM)	Collagen binding (% bound) (collagen; initial conc. 1000 nM)	Ki (αVβ3 receptor)	Ki (in words) (αVβ3 receptor; summary of Example 10)	% main peak area (after 4 h incubation in mouse plasma) [1]	Target to background ratio (TBR) (HT-29 tumour)	PPB (ranking in words) [2]
CCN1\C(=C/C=C/C=C/C2=[N+](CCCCCC(=O)NCCOCCOCCOCCNC(=O)COCC(=O)NCCCC[C@@H]3NC(=O)CSC[C@@H](C(=O)NCCOCCOCCOCCNC(=O)COCC(N)=O)NC(=O)[C@H](Cc4ccccc4)NC(=O)[C@@H]4CSSC[C@H](NC3=O)C(=O)N[C@@H](CCCNC(=N)N)C(=O)NCC(=O)N[C@@H](CC(=O)O)C(=O)N4)c3ccc(S(=O)(=O)[O-])cc3C2(C)C)C(C)(C)c2cc(S(=O)(=O)O)ccc21 [Compound 8]	92.1%	85.9%	56.7%	32.7%			93%		
CC[N+]1=C(/C=C/C=C/C=C2/N(CCCCCC(=O)NCCCC[C@@H]3NC(=O)CSC[C@@H](C(=O)NCCOCCOCCOCCNC(=O)COCC(N)=O)NC(=O)[C@H](CCCNC(=N)N)NC(=O)[C@@H]4CSSC[C@H](NC3=O)C(=O)NCC(=O)N[C@@H](CC(=O)O)C(=O)N[C@@H](Cc3ccccc3)C(=O)N4)c3ccc(S(=O)(=O)O)cc3C2(C)C)C(C)(C)c2cc(S(=O)(=O)[O-])ccc21 [Compound 2, neg-RGD-[Cy5(2)] Dye Conjugate] ({CH2CO}-K(X3)CGDFCRC-X2; disulfide 2-6; thioether N-8)	87%	81.1%	83%					1.14	
CC[N+]1=C(/C=C/C=C/C=C2/N(CCCCCC(=O)NCCCC[C@@H]3NC(=O)CSC[C@@H](C(=O)NCCOCCOCCOCCNC(=O)COCC(N)=O)NC(=O)[C@H](Cc4ccccc4)NC(=O)[C@@H]4CSSC[C@H](NC3=O)C(=O)N[C@@H](CCCNC(=N)N)C(=O)NCC(=O)N[C@@H](CC(=O)O)C(=O)N4)c3ccc(S(=O)(=O)O)cc3C2(C)C)C(C)(C)c2cc(S(=O)(=O)[O-])ccc21 [Compound 1, RGD-[Cy5(2)] Dye Conjugate] ({CH2CO}-K(X3)CRGDCFC-X2; disulfide 2-6; thioether N-8)					1.9 nM				
CC1(CCCCS(=O)(=O)O)C(/C=C/C=C/C=C2/N(CCCCCC(=O)NCCCC[C@@H]3NC(=O)CSC[C@@H](C(=O)NCCOCCOCCOCCNC(=O)COCC(N)=O)NC(=O)[C@H](Cc4ccccc4)NC(=O)[C@@H]4CSSC[C@H](NC3=O)C(=O)N[C@@H](CCCNC(=N)N)C(=O)NCC(=O)N[C@@H](CC(=O)O)C(=O)N4)c3ccc(S(=O)(=O)O)cc3C2(C)C)=[N+](CCCCS(=O)(=O)O)c2ccc(S(=O)(=O)O)cc21 (stereo partly drawn) [Compound 4, RGD-Cy5** Dye Conjugate]					1.8 nM		100%		lowest
CC1(CCCCS(=O)(=O)O)C(/C=C/C=C/C=C2\N(CCCCCC(=O)NCCCC[C@@H]3NC(=O)CSC[C@@H](C(=O)NCCOCCOCCOCCNC(=O)COCC(N)=O)NC(=O)[C@H](Cc4ccccc4)NC(=O)[C@@H]4CSSC[C@H](NC3=O)C(=O)N[C@@H](CCCNC(=N)N)C(=O)NCC(=O)N[C@@H](CC(=O)O)C(=O)N4)c3ccc(S(=O)(=O)O)cc3C2(C)CCCCS(=O)(=O)O)=[N+](Cc2ccccc2)c2ccc(S(=O)(=O)[O-])cc21 (stereo partly drawn) [Compound 5]	83.6%	96.1%	50.9%	30.4%			46%		

Now from value to compound, other results behind:

Collagen binding (% bound) (collagen; initial conc. 30 nM)	Collagen binding (% bound) (collagen; initial conc. 100 nM)	Collagen binding (% bound) (collagen; initial conc. 300 nM)	Collagen binding (% bound) (collagen; initial conc. 1000 nM)	Ki (αVβ3 receptor)	Ki (in words) (αVβ3 receptor; summary of Example 10)	Compound	% main peak area (after 4 h incubation in mouse plasma) [1]	Target to background ratio (TBR) (HT-29 tumour)	PPB (ranking in words) [2]
				2.6 nM		C[N+]1=C(/C=C/C=C/C=C2/N(CCCCCC(=O)NCCCC[C@@H]3NC(=O)CSC[C@@H](C(=O)NCCOCCOCCOCCNC(=O)COCC(N)=O)NC(=O)[C@H](Cc4ccccc4)NC(=O)[C@@H]4CSSC[C@H](NC3=O)C(=O)N[C@@H](CCCNC(=N)N)C(=O)NCC(=O)N[C@@H](CC(=O)O)C(=O)N4)c3ccccc3C2(C)C)C(C)(C)c2cc(S(=O)(=O)[O-])ccc21 [Compound 3, RGD-Cy5(1)) Dye Conjugate] ({CH2CO}-K(X1)CRGDCFC-X2; disulfide 2-6; thioether N-8)			highest PPB
				7.4 nM	slightly higher Ki value	CC1(CCCCS(=O)(=O)[O-])C(/C=C/C=C/C=C2\N(CCCCS(=O)(=O)O)c3c(F)c(F)c(F)c(F)c3C2(C)CCCCS(=O)(=O)O)=[N+](CCCCCC(=O)NCCCC[C@@H]2NC(=O)CSC[C@@H](C(=O)NCCOCCOCCOCCNC(=O)COCC(N)=O)NC(=O)[C@H](Cc3ccccc3)NC(=O)[C@@H]3CSSC[C@H](NC2=O)C(=O)N[C@@H](CCCNC(=N)N)C(=O)NCC(=O)N[C@@H](CC(=O)O)C(=O)N3)c2c(F)c(F)c(F)c(F)c21 (stereo partly drawn) [Compound 7]	70%		highest PPB
				1.6 nM		CC1(C)C(/C=C/C=C/C=C2/N(CCCS(=O)(=O)O)c3ccc(S(=O)(=O)O)cc3C2(C)CCCCCC(=O)NCCCC[C@@H]2NC(=O)CSC[C@@H](C(=O)NCCOCCOCCOCCNC(=O)COCC(N)=O)NC(=O)[C@H](Cc3ccccc3)NC(=O)[C@@H]3CSSC[C@H](NC2=O)C(=O)N[C@@H](CCCNC(=N)N)C(=O)NCC(=O)N[C@@H](CC(=O)O)C(=O)N3)=[N+](CCCS(=O)(=O)O)c2ccc(S(=O)(=O)O)cc21 (stereo partly drawn) [Compound 6, RGD-Alexa 647 Dye Conjugate]	100%		lowest
